Reference: US20240139147A1, “METHOD FOR IMPROVING BIOAVAILABILITY OF NAD+ DERIVATIVES” (HOBOOMLIFE BIO-TECHNOLOGY (SHENZHEN) CO., LTD., priority 2022, published 2024)

Tests used:
[1] = in vivo; cited from earlier work
NAD+ [2] = experiment: Increasing the level of NAD+ by controlled-release NR microspheres 4, 7, 8, blood NAD+ by HPLC (Example 12); type: in vivo; conditions: SD rats, intragastric; for Content of NAD+ in blood: 100 mg/kg NR and/or 10 mg/kg apigenin
Protocol: (§1) 28 SD rats weighing about 200 g were purchased, and an experiment was carried out after one week of adaptive feeding. The 28 rats were divided into 7 groups, 4 rats per group (half male and half female). The rats in group 1 were not treated, the rats in group 2 were administered intragastrically with 100 mg/kg of NR, the rats in group 3 were administered intragastrically with 10 mg/kg of apigenin, the rats in group 4 were administered intragastrically with 100 mg/kg of NR and 10 mg/kg of apigenin at the same time, the rats in group 5 were administered intragastrically with the controlled-release NR microspheres 4 containing 100 mg/kg of NR and 10 mg/kg of apigenin, the rats in group 6 were administered intragastrically with the controlled-release NR microspheres 7 containing 100 mg/kg of NR and 10 mg/kg of apigenin, and the rats in group 7 were administered intragastrically with the controlled-release NR microspheres 8 containing 100 mg/kg of NR and 10 mg/kg of apigenin.
Blood was collected from each rat in the groups via the tail vein at time points of 2 h, 2.5 h, 3 h, 3.5 h, 4 h, 4.5 h, 5 h, 5.5 h, and 6 h, respectively, after intragastric administration of corresponding microspheres, and 0.1 mL of blood was collected each time by each rat. After the vein blood collected from the rat in each groups at each time point was treated, the NAD+ level in the blood sample was tested by high performance liquid chromatography (HPLC). The test results of 4 rats in each group were averaged. […] There are time differences between a peak of the releasing of apigenin and a peak of the releasing of NR in the controlled-release […], the controlled-release NR microsphere 7, and the controlled-release NR microsphere 8 that are prepared based on different ratios of apigenin (the CD38 inhibitor) to NR, and the time differences between a peak of the releasing of apigenin and a peak of the releasing of NR in the three microspheres are consistent and are all 0.5-1.5 h.

NAD+ [3] = experiment: Increasing the level of NAD+ by controlled-release NR microspheres 4, 11, 12, blood NAD+ by HPLC (Example 18); type: in vivo; conditions: SD rats, intragastric; for NAD+ level in blood: 100 mg/kg NR and/or 10 mg/kg apigenin
Protocol: as §1, with “of apigenin,” for “of apigenin at the same time,”, “microspheres 2” for “microspheres 4”, “microspheres 11” for “microspheres 7”, “microspheres 12” for “microspheres 8”
Blood was collected from rat the in each groups via the tail vein at time points of 2 h, 2.5 h, 3 h, 3.5 h, 4 h, 4.5 h, 5 h, 5.5 h, and 6 h, respectively, after intragastric administration of corresponding microspheres, and 0.1 mL of blood was collected each time by each rat. After the vein blood collected from each rat in the groups at each time point was treated, the NAD+ level in the blood sample was tested by high performance liquid chromatography (HPLC). The test results of 4 rats in each group were averaged. […] There are time differences between a peak of the releasing of apigenin and a peak of the releasing NR in the controlled-release NR microsphere 4, the controlled-release NR microsphere 11, and the controlled-release NR microsphere 12 that are prepared based on different mass ratios of apigenin (the CD38 inhibitor) to the excipient and different mass ratios of NR to the excipient, and the time differences between a peak of the releasing of apigenin and a peak of the releasing NR in the three microspheres are consistent and are all about 0.5 h to 1.5 h.

NAD+ [4] = experiment: Increasing the level of NAD+ by controlled-release NR microsphere 4, blood NAD+ by HPLC (Example 6); type: in vivo; conditions: SD rats, intragastric; for NAD+ level in blood: 100 mg/kg NR and/or 10 mg/kg apigenin
Protocol: as §1, with “20” for “28”, “5” for “7”, “time, and” for “time,”, “of” for “of apigenin, the rats in group 6 were administered intragastrically with the controlled-release NR microspheres 7 containing 100 mg/kg of NR and 10 mg/kg of apigenin, and the rats in group 7 were administered intragastrically with the controlled-release NR microspheres 8 containing 100 mg/kg of NR and 10 mg/kg of”
Blood was collected from the rat in each groups via the tail vein at time points of 2 h, 2.5 h, 3 h, 3.5 h, 4 h, 4.5 h, 5 h, 5.5 h, and 6 h, respectively, after intragastric administration of corresponding microspheres, and 0.1 mL of blood was collected each time by each rat. After the vein blood collected from each rat at each time point was treated, the NAD+ level in the blood sample was tested by high performance liquid chromatography (HPLC). The test results of 4 rats in each group were averaged.

| Structure (SMILES) | level of NAD+ in the rat compared with the blank group (in words) (NAD+ [2]) | Content of NAD+ in blood (NAD+ [2]; 2 h) [µM] | Content of NAD+ in blood (NAD+ [2]; 2.5 h) [µM] | Content of NAD+ in blood (NAD+ [2]; 3 h) [µM] | Content of NAD+ in blood (NAD+ [2]; 3.5 h) [µM] | Content of NAD+ in blood (NAD+ [2]; 4 h) [µM] | Content of NAD+ in blood (NAD+ [2]; 4.5 h) [µM] | Content of NAD+ in blood (NAD+ [2]; 5 h) [µM] | Content of NAD+ in blood (NAD+ [2]; 5.5 h) [µM] | Content of NAD+ in blood (NAD+ [2]; 6 h) [µM] | level of NAD+ in the rat compared with the blank group (in words) (NAD+ [3]) | NAD+ level in blood (NAD+ [3]; 2 h) [µM] | NAD+ level in blood (NAD+ [3]; 2.5 h) [µM] | NAD+ level in blood (NAD+ [3]; 3 h) [µM] | NAD+ level in blood (NAD+ [3]; 3.5 h) [µM] | NAD+ level in blood (NAD+ [3]; 4 h) [µM] | NAD+ level in blood (NAD+ [3]; 4.5 h) [µM] | NAD+ level in blood (NAD+ [3]; 5 h) [µM] | NAD+ level in blood (NAD+ [3]; 5.5 h) [µM] | NAD+ level in blood (NAD+ [3]; 6 h) [µM] | other results |
| --- | --- | --- | --- | --- | --- | --- | --- | --- | --- | --- | --- | --- | --- | --- | --- | --- | --- | --- | --- | --- | --- |
| O=c1cc(-c2ccc(O)cc2)oc2cc(O)cc(O)c12 [Apigenin, apigenin] | can increase the level of NAD+ in the rat | 144 | 153 | 184 | 175 | 163 | 159 | 146 | 139 | 141 | can increase the level of NAD+ in the rat | 132 | 150 | 179 | 173 | 161 | 157 | 166 | 138 | 140 | Metabolic half-life [1]: 91.8 h; level of NAD+ in the rat compared with the blank group (in words) (NAD+ [4]): can increase the level of NAD+ in the rat; NAD+ level in blood (NAD+ [4]; 2 h): 141 µM; NAD+ level in blood (NAD+ [4]; 2.5 h): 148 µM; NAD+ level in blood (NAD+ [4]; 3 h): 176 µM; NAD+ level in blood (NAD+ [4]; 3.5 h): 171 µM; NAD+ level in blood (NAD+ [4]; 4 h): 160 µM; NAD+ level in blood (NAD+ [4]; 4.5 h): 156 µM; NAD+ level in blood (NAD+ [4]; 5 h): 143 µM; NAD+ level in blood (NAD+ [4]; 5.5 h): 144 µM; NAD+ level in blood (NAD+ [4]; 6 h): 138 µM |
| NC(=O)c1ccc[n+]([C@@H]2O[C@H](CO)[C@@H](O)[C@H]2O)c1 [NR, nicotinamide riboside] | can increase the level of NAD+ in the rat | 128 | 200 | 180 | 159 | 162 | 157 | 149 | 142 | 134 | can increase the level of NAD+ in the rat | 142 | 203 | 188 | 154 | 167 | 152 | 145 | 144 | 135 | level of NAD+ in the rat compared with the blank group (in words) (NAD+ [4]): can increase the level of NAD+ in the rat; NAD+ level in blood (NAD+ [4]; 2 h): 131 µM; NAD+ level in blood (NAD+ [4]; 2.5 h): 196 µM; NAD+ level in blood (NAD+ [4]; 3 h): 181 µM; NAD+ level in blood (NAD+ [4]; 3.5 h): 163 µM; NAD+ level in blood (NAD+ [4]; 4 h): 142 µM; NAD+ level in blood (NAD+ [4]; 4.5 h): 154 µM; NAD+ level in blood (NAD+ [4]; 5 h): 159 µM; NAD+ level in blood (NAD+ [4]; 5.5 h): 139 µM; NAD+ level in blood (NAD+ [4]; 6 h): 141 µM |
